Reference: patent publication US20120053112A1, “METHODS AND COMPOSITIONS RELATED TO THE REGULATION OF GOBLET CELL DIFFERENTIATION, MUCUS PRODUCTION AND MUCUS SECRETION” (CHILDREN'S HOSPITAL MEDICAL CENTER, priority 2009, published 2012)
Several values for one entry are separate records, joined by “and”; a condition that tells them apart may be missing. Equal values may be shown once. Entries after “also recorded” stand apart in the source; their conditions may differ.

B1: IL-13: mouse IL-13 cytokine purchased from R&D System, used for in vitro culture (protein, UniProt P20109 19-131, looked up)
Interleukin-13: APGPVPRSVSLPLTLKELIEELSNITQDQTPLCNGSMVWSVDLAAGGFCVALDSLTNISNCNAIYRTQRILHGLCNRKAPTTVSSLPDTKIEVAHFITKLLSYTKQLFRHGPF

Key:
[1] = tested on: MUC5AC mRNA in Flag-SPDEF-GFP HBEC cells; experiment: Effect of inhibitors on MUC5AC expression in SPDEF-expressing HBEC cells on air-liquid interface (real-time PCR); assay type: cell-based, human; settings: for Inhibitor concentrations at which MUC5AC mRNA was not detected: SPDEF-expressing HBEC cells; for Concentration of dose curve with no detection of MUC5AC mRNA (starred): Flag-SPDEF-GFP HBEC on ALI, inhibitor added upon induction of ALI, RNA after 48 hours, TAQMAN real-time PCR, FIG. 19
Description: Inhibitors were added to media upon induction of ALI and RNA was isolated after 48 hours. (A) p38 MAPK inhibitor (SB239063) dose curve: 0.5, 1, 2.5, 5*, 10* μM. (B) PI3K inhibitor (LY294002) dose curve: 0.5, 1, 2.5, 5*, 10*, 25* μM. (C) mTor inhibitor (Rapamycin) dose curve: 1, 5, 10, 25, 50*, 100* nM. *=No detection of MUC5AC mRNA at these concentrations as determined by TAQMAN® real-time PCR (Applied Biosystems, Foster City, Calif.).
Expression levels of MUC5AC were measured in SPDEF-expressing HBEC cells treated with the p38 MAPK inhibitor SB239063. MUC5AC mRNA was quantitated by QRT-PCR. MUC5AC mRNA was not detected at inhibitor concentrations ≧5 uM.
Expression levels of MUC5AC in SPDEF-expressing HBEC cells treated with rapamycin. MUC5AC mRNA was not detected at inhibitor concentrations ≧50 nM.
Expression levels of MUC5AC in SPDEF-expressing HBEC cells treated with the PI3K inhibitor LY294002. MUC5AC mRNA was not detected at inhibitor concentrations ≧[…].
Using Agr2 as a readout of SPDEF, the effects of p38 MAPK inhibitor SB239063, PI3K inhibitor LY294002, and mTor inhibitor rapamycin in human bronchiolar epithelial cells (HBEC) were investigated. In vitro preparations were maintained at the ALI for 48 hours prior to taking Agr2 measurements.
To test for small molecule inhibitors, HBEC cells expressing lentiviral SPDEF constructs were treated with the p38 MAP kinase inhibitor, SB239063. MUC5AC mRNA was quantitated by QRT-PCR. SPDEF-dependent MUC5AC mRNA was inhibited by the p38 MAP kinase inhibitor (FIG. 22).

[2] = tested on: mouse Agr2 1.6 Kb promoter; settings: U0126 at 20 μM and 10 μM; 36 hour transfection, aSTEpC; DMSO vehicle control
Description: Thirty-six hour transfection of adult sheep tracheal epithelial cells (aSTEpC) with Agr2-luciferase and expression vectors encoding SPDEF and Foxa3. MAPK inhibitor (U0126) was added at a concentration of 20 μM and 10 μM (DMSO as vehicle control).
Thirty-six hour transfection of adult sheep tracheal epithelial cells (aSTEpCs) with Agr2-luciferase and expression vectors encoding SPDEF and Foxa3 were performed. A MAPK inhibitor (U0126) was added at a concentration of 20 μM and 10 μM (using DMSO as a vehicle control). MAPK inhibitor (U0126) effects on the activity of the mouse Agr2 1.6 Kb promoter were analyzed.
Promoter reporter constructs were co-transfected into primary sheep tracheal epithelial cells (aSTEpC) with CMV-13-Gal plasmid (Clontech, Palo Alto, Calif.) and/or transcription factor expression plasmid using Lipofectamine 2000 (Invitrogen, Carlsbad, Calif.) as previously described^6. Growth media was changed into a differentiation media (MTEC/Nu, mouse tracheal epithelial cells culture media, 2% Nu serum)^39 after transfection. Cell lysates were collected for luciferase activity assay 24 hours after transfection. All transfection assays were performed with primary sheep adult tracheal epithelial cells at passage 3 or 4. Relative promoter activities were normalized to transfection efficiency assayed by β-galactosidase activity and shown as mean±S.D.

[3] = tested on: SPDEF in primary mouse tracheal epithelial cells; experiment: IL-13 induction of SPDEF in primary mouse tracheal epithelial cells at air-liquid interface (immunohistochemistry); assay type: cell-based; settings: IL-13 10 ng/ml; ALI culture, 3 and 7 days; FIG. 14
Description: Immunohistochemical staining of SPDEF in primary mouse tracheal epithelial cells cultured under an air-liquid interface (ALI) condition in the presence or absence of IL-13 (10 ng/ml). Expression of SPDEF was detected after 3 days (upper panel) and 7 days (lower panel) after ALI culture. Scale bar: 50 μm.
The air-liquid interface culture of mouse tracheal epithelial cells was performed as previously described^39. The mouse IL-13 used for in vitro culture was purchased from R&D System (Minneapolis, Minn.). The air-liquid interface culture of the HEBCs was similar to procedures previously described^40.

Row | Molecule | Inhibitor concentrations at which MUC5AC mRNA was not detected ([1]; QRT-PCR, FIGS. 22, 25) [µM] | Concentration of dose curve with no detection of MUC5AC mRNA (starred) [1] | also measured
1 | O=c1cc(N2CCOCC2)oc2c(-c3ccccc3)cccc12 [LY294002] | ≥ 10 |  | 
2 | COc1nccc(-c2c(-c3ccc(F)cc3)ncn2C2CCC(O)CC2)n1 (centres unmarked) [SB239063] | ≥ 5 | 5 µM and 10 µM | Effect on SPDEF-mediated MUC5AC (Muc5A/C) activation / mRNA ([1]; HBEC in vitro, result in words): highly active; also recorded: inhibited
3 | CO[C@H]1C[C@@H]2CC[C@@H](C)[C@@](O)(O2)C(=O)C(=O)N2CCCC[C@H]2C(=O)O[C@H]([C@H](C)C[C@@H]2CC[C@@H](O)[C@H](OC)C2)CC(=O)[C@H](C)/C=C(\C)[C@@H](O)[C@@H](OC)C(=O)[C@H](C)C[C@H](C)/C=C/C=C/C=C/1C [Rapamycin] |  | 0.05 µM and 0.1 µM | Inhibitor concentrations at which MUC5AC mRNA was not detected ([1]; FIG. 24): ≥ 0.05 µM
4 | N#CC(=C(/N)Sc1ccccc1N)/C(C#N)=C(\N)Sc1ccccc1N [U0126] |  |  | Effect on activation of SPDEF or Agr2 (Agr2 promoter luciferase activity) [2]: inhibited
5 | B1 |  |  | SPDEF expression [3]: dramatically induced
